Reference: US8354441B2, “Oxazoline derivatives” (Hoffmann-La Roche Inc., priority 2009, dated 2013)

Assays:
mouse TAAR1 = target: T1, mouse TAAR1 (Mus musculus, UniProt Q923Y8); experiment: TAAR1 radioligand binding with [3H]-rac-2-(1,2,3,4-tetrahydro-1-naphthyl)-2-imidazoline, membranes of stably transfected HEK293 cells; conditions: first value of the cell, read-out: Ki (μM) mouse/rat: mouse
T1 construct: expressed in transfected cells; host or cells: HEK293 (ATCC # CRL-1573), stably transfected with pIRESneo2 expression plasmid
Method in brief: (§1)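 Competition binding: competitors spanning 10 pM–30 μM displace 60 nM [3H]-rac-2-(1,2,3,4-tetrahydro-1-naphthyl)-2-imidazoline from stably transfected HEK293 membranes (mouse or rat receptor), 30 min, 4 °C, pH 7.0 buffer with Mg2+/Ca2+. Bound label counted after GF/C filtration; 10 μM unlabelled ligand defines non-specific binding.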

rat TAAR1 = target: T2, rat TAAR1 (Rattus norvegicus, UniProt Q923Y9); experiment: as above; conditions: second value of the cell, read-out: Ki (μM) mouse/rat: rat
T2 construct: expressed in transfected cells; host or cells: HEK293 (ATCC # CRL-1573), stably transfected with pIRESneo2 expression plasmid
Method in brief: as §1

T2 sequence (Q923Y9 whole entry): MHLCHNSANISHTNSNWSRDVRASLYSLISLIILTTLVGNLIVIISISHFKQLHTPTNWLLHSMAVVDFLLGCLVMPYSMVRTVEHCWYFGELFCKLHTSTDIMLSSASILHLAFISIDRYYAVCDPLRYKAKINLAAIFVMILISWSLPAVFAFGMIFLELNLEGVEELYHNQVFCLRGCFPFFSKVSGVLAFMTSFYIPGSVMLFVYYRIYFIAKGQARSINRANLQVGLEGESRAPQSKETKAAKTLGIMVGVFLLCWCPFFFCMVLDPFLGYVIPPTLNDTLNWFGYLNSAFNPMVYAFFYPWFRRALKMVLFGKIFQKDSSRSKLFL
T1 sequence (Q923Y8 whole entry): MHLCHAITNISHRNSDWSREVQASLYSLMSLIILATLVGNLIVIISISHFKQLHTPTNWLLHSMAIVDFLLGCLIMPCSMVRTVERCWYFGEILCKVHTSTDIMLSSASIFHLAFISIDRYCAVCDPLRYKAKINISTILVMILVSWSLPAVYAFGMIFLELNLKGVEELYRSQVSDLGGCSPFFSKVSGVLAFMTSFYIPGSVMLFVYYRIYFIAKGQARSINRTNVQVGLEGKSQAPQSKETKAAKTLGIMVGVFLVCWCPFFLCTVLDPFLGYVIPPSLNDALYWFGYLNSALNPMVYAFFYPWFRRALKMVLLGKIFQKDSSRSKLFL

| SMILES | Ki (mouse TAAR1) [µM] | Ki (rat TAAR1) [µM] |
| --- | --- | --- |
| CC(C)c1ocnc1C(=O)Nc1ccc(CC[C@H]2COC(N)=N2)cc1 [Example 215, (S)-N-(4-(2-(2-Amino-4,5-dihydrooxazol-4-yl)ethyl)phenyl)-5-isopropyloxazole-4-carboxamide] | 0.0012 | 0.0038 |
| N#Cc1ccc(C(=O)Nc2ccc(CC[C@H]3COC(N)=N3)cc2)cc1 [Example 59, N-{4-[2-((S)-2-Amino-4,5-dihydro-oxazol-4-yl)-ethyl]-phenyl}-4-cyano-benzamide] | 0.0022 | 0.0022 |
| NC1=N[C@@H](CCc2ccc(NC(=O)OCc3ccc(Cl)cc3)cc2)CO1 [Example 146, {4-[2-((S)-2-Amino-4,5-dihydro-oxazol-4-yl)-ethyl]-phenyl}-carbamic acid 4-chloro-benzyl ester] | 0.0001 | 0.0003 |
| CCOc1ccc(CC(=O)Nc2ccc(CC[C@H]3COC(N)=N3)cc2)cc1 [Example 66, N-{4-[2-((S)-2-Amino-4,5-dihydro-oxazol-4-yl)-ethyl]-phenyl}-2-(4-ethoxy-phenyl)-acetamide] | 0.0026 | 0.0017 |
| COc1ccc(OC(=O)Nc2ccc(CC[C@H]3COC(N)=N3)cc2)cc1 [Example 147, {4-[2-((S)-2-Amino-4,5-dihydro-oxazol-4-yl)-ethyl]-phenyl}-carbamic acid 4-methoxy-phenyl ester] | 0.0006 | 0.0003 |
| COc1cc(Cl)ccc1C(=O)Nc1ccc(CC[C@H]2COC(N)=N2)cc1 [Example 138, (S)-N-(4-(2-(2-Amino-4,5-dihydrooxazol-4-yl)ethyl)phenyl)-4-chloro-2-methoxybenzamide] | 0.0002 | 0.0002 |
| Cc1nc(C(=O)Nc2ccc(CC[C@H]3COC(N)=N3)cc2)c(C(F)(F)F)o1 [Example 216, (S)-N-(4-(2-(2-Amino-4,5-dihydrooxazol-4-yl)ethyl)phenyl)-2-methyl-5-(trifluoromethyl)oxazole-4-carboxamide] | 0.0027 | 0.0061 |
| NC1=N[C@@H](CCc2ccc(NC(=O)C3CC(F)(F)C3)cc2)CO1 [Example 44, 3,3-Difluoro-cyclobutanecarboxylic acid {4-[2-((S)-2-amino-4,5-dihydro-oxazol-4-yl)-ethyl]-phenyl}-amide] | 0.0035 | 0.0014 |
| NC1=N[C@@H](CCc2ccc(NC(=O)CCC3CC3)cc2)CO1 [Example 170, (S)-N-(4-(2-(2-Amino-4,5-dihydrooxazol-4-yl)ethyl)phenyl)-3-cyclopropylpropanamide] | 0.0074 | 0.0018 |
| CC(C)(C(=O)Nc1ccc(CC[C@H]2COC(N)=N2)cc1)c1ccc(Cl)cc1 [Example 72, N-{4-[2-((S)-2-Amino-4,5-dihydro-oxazol-4-yl)-ethyl]-phenyl}-2-(4-chloro-phenyl)-isobutyramide] | 0.0008 | 0.001 |
| NC1=N[C@@H](CCc2ccc(NC(=O)C3CC3)cc2)CO1 [Example 46, Cyclopropanecarboxylic acid {4-[2-((S)-2-amino-4,5-dihydro-oxazol-4-yl)-ethyl]-phenyl}-amide] | 0.0042 | 0.0018 |
| NC1=N[C@@H](CCc2ccc(NC(=O)c3ccc4cccnc4n3)cc2)CO1 [Example 105, [1,8]Naphthyridine-2-carboxylic acid {4-[2-((S)-2-amino-4,5-dihydro-oxazol-4-yl)-ethyl]-phenyl}-amide] | 0.0051 | 0.0011 |
| NC1=N[C@@H](CCc2ccc(NC(=O)c3ccc(C(F)(F)F)cc3)cc2)CO1 [Example 17, N-{4-[2-((S)-2-Amino-4,5-dihydro-oxazol-4-yl)-ethyl]-phenyl}-4-trifluoromethyl-benzamide] | 0.0002 | 0.0004 |
| NC1=N[C@@H](CCc2ccc(NC(=O)c3nc4ccccc4[nH]3)cc2)CO1 [Example 86, 1H-Benzoimidazole-2-carboxylic acid {4-[2-((S)-2-amino-4,5-dihydro-oxazol-4-yl)-ethyl]-phenyl}-amide] | 0.0022 | 0.0006 |
| CCCc1ccc(C(=O)Nc2ccc(CC[C@H]3COC(N)=N3)cc2)cc1 [Example 61, N-{4-[2-((S)-2-Amino-4,5-dihydro-oxazol-4-yl)-ethyl]-phenyl}-4-propyl-benzamide] | 0.0002 | 0.0007 |
| NC1=N[C@@H](CCc2ccc(NC(=O)Cc3ccc(F)cc3)cc2)CO1 [Example 69, N-{4-[2-((S)-2-Amino-4,5-dihydro-oxazol-4-yl)-ethyl]-phenyl}-2-(4-fluoro-phenyl)-acetamide] | 0.003 | 0.0009 |
| Cc1ccc(C(=O)Nc2ccc(CC[C@H]3COC(N)=N3)cc2)s1 [Example 201, (S)-N-(4-(2-(2-Amino-4,5-dihydrooxazol-4-yl)ethyl)phenyl)-5-methylthiophene-2-carboxamide] | 0.0005 | 0.0007 |
| NC1=N[C@@H](CCc2ccc(NC(=O)C3(c4ccc(Cl)cc4)CC3)cc2)CO1 [Example 53, 1-(4-Chloro-phenyl)-cyclopropanecarboxylic acid {4-[2-((S)-2-amino-4,5-dihydro-oxazol-4-yl)-ethyl]-phenyl}-amide] | 0.0009 | 0.0016 |
| NC1=N[C@@H](CCc2ccc(NC(=O)c3ncoc3C3CC3)cc2)CO1 [Example 214, (S)-N-(4-(2-(2-Amino-4,5-dihydrooxazol-4-yl)ethyl)phenyl)-5-cyclopropyloxazole-4-carboxamide] | 0.0011 | 0.0028 |

Other lines, results leading:

| Ki (mouse TAAR1) [µM] | Ki (rat TAAR1) [µM] | SMILES |
| --- | --- | --- |
| 0.0044 | 0.0007 | NC1=N[C@@H](CCc2ccc(NC(=O)c3nc(Cl)ccc3F)cc2)CO1 [Example 89, 6-Chloro-3-fluoro-pyridine-2-carboxylic acid {4-[2-((S)-2-amino-4,5-dihydro-oxazol-4-yl)-ethyl]-phenyl}-amide] |
| 0.0081 | 0.0018 | NC1=N[C@@H](CCc2ccc(NC(=O)c3cccnc3F)cc2)CO1 [Example 99, (S)-N-(4-(2-(2-amino-4,5-dihydrooxazol-4-yl)ethyl)phenyl)-2-fluoronicotinamide] |
| 0.0001 | 0.0001 | NC1=N[C@@H](CCc2ccc(NC(=O)Nc3ccc(C(F)(F)F)cc3)cc2)CO1 [Example 15, 1-{4-[2-((S)-2-Amino-4,5-dihydro-oxazol-4-yl)-ethyl]-phenyl}-3-(4-trifluoromethyl-phenyl)-urea] |
| 0.0007 | 0.0021 | NC1=N[C@@H](CCc2ccc(NC(=O)c3ncc(C(F)(F)F)cc3Cl)cc2)CO1 [Example 101, 3-Chloro-5-trifluoromethyl-pyridine-2-carboxylic acid {4-[2-((S)-2-amino-4,5-dihydro-oxazol-4-yl)-ethyl]-phenyl}-amide] |
| 0.0039 | 0.0033 | Cc1cnc(C(=O)Nc2ccc(CC[C@H]3COC(N)=N3)cc2)cn1 [Example 129, (S)-N-(4-(2-(2-Amino-4,5-dihydrooxazol-4-yl)ethyl)phenyl)-5-methylpyrazine-2-carboxamide] |
| 0.0006 | 0.001 | NC1=N[C@@H](CCc2ccc(NC(=O)c3ccc(Cl)cn3)cc2)CO1 [Example 33, 5-Chloro-pyridine-2-carboxylic acid {4-[2-((S)-2-amino-4,5-dihydro-oxazol-4-yl)-ethyl]-phenyl}-amide] |
| 0.0003 | 0.0006 | NC1=N[C@@H](CCc2ccc(NC(=O)c3ccc(Cl)cc3F)cc2)CO1 [Example 136, (S)-N-(4-(2-(2-Amino-4,5-dihydrooxazol-4-yl)ethyl)phenyl)-4-chloro-2-fluorobenzamide] |
| 0.0071 | 0.0028 | NC1=N[C@@H](CCc2ccc(NC(=O)Nc3ncc(Cl)cn3)cc2)CO1 [Example 151, 1-{4-[2-((S)-2-Amino-4,5-dihydro-oxazol-4-yl)-ethyl]-phenyl}-3-(5-chloro-pyrimidin-2-yl)-urea] |
| 0.0008 | 0.0019 | NC1=N[C@@H](CCc2ccc(NC(=O)c3ccc(C(F)(F)F)cn3)cc2)CO1 [Example 54, 5-Trifluoromethyl-pyridine-2-carboxylic acid {4-[2-((S)-2-amino-4,5-dihydro-oxazol-4-yl)-ethyl]-phenyl}-amide] |
| 0.001 | 0.0006 | NC1=N[C@@H](CCc2ccc(NC(=O)c3ccc(F)cn3)cc2)CO1 [Example 96, (S)-N-(4-(2-(2-amino-4,5-dihydrooxazol-4-yl)ethyl)phenyl)-5-fluoropicolinamide] |
| 0.0091 | 0.0035 | Cn1cc(Cl)c(C(=O)Nc2ccc(CC[C@H]3COC(N)=N3)cc2)n1 [Example 194, (S)-N-(4-(2-(2-Amino-4,5-dihydrooxazol-4-yl)ethyl)phenyl)-4-chloro-1-methyl-1H-pyrazole-3-carboxamide] |
| 0.0009 | 0.0016 | CC(C)c1cncc(C(=O)Nc2ccc(CC[C@H]3COC(N)=N3)cc2)n1 [Example 230, (S)-N-(4-(2-(2-Amino-4,5-dihydrooxazol-4-yl)ethyl)phenyl)-6-isopropylpyrazine-2-carboxamide] |
| 0.0005 | 0.0001 | NC1=N[C@@H](CCc2ccc(NC(=O)c3ccc(Cl)s3)cc2)CO1 [Example 169, (S)-N-(4-(2-(2-Amino-4,5-dihydrooxazol-4-yl)ethyl)phenyl)-5-chlorothiophene-2-carboxamide] |
| 0.0008 | 0.0009 | NC1=N[C@@H](CCc2ccc(NC(=O)c3cc(Cl)nc(Cl)c3)cc2)CO1 [Example 175, (S)-N-(4-(2-(2-Amino-4,5-dihydrooxazol-4-yl)ethyl)phenyl)-2,6-dichloroisonicotinamide] |
| 0.0067 | 0.0035 | NC1=N[C@@H](CCc2ccc(NC(=O)c3ncc(Cl)cn3)cc2)CO1 [Example 34, 5-Chloro-pyrimidine-2-carboxylic acid {4-[2-((S)-2-amino-4,5-dihydro-oxazol-4-yl)-ethyl]-phenyl}-amide] |
